± gives the expanded uncertainty stated by the source.
Conditions: Crystal; DTA

## CNC(=O)c1cc(Oc2ccc(N)cc2)ccn1 [4-(4-aminophenoxy)-N-methylpyridine-2-carboxamide]
  Normal melting temperature: 117.00 ± 1.1 °C
